Patent publication US20090124631A1, “Combination Therapy” (priority 2007, published 2009)

Tests used:
HDAC5 = molecular target: T1, HDAC5 (Homo sapiens, UniProt Q9UQL6); test: Fluorescence-based HDAC enzyme assay, recombinant HDAC5; assay type: biochemical; settings: recombinant human HDAC enzyme in vitro; read-out: IC50 (μM) HD5
T1 construct: cDNAs encoding truncated versions of HDAC4, 5 and 7 encompassing their deacetylase domains; hexahistidine (N); made in house; host or cells: Sf-9 insect cells (baculovirus)
T1 sequence (Q9UQL6 684-1028 limits assumed): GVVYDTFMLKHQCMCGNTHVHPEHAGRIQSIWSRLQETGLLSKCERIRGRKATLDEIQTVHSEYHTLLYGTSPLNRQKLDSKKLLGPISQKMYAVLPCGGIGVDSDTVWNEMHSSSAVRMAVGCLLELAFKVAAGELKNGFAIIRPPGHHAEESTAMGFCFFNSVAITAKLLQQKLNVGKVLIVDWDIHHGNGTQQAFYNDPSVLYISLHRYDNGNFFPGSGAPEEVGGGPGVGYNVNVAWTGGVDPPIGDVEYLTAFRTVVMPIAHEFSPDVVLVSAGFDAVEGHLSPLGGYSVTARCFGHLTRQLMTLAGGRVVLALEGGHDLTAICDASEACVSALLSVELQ
Text: (§1) cDNAs of human HDAC1-8 and 11 were generated by RT-PCR reactions using primers complementary to the 5′ and 3′ coding sequence of human HDAC gene sequences in GenBank. cDNAs corresponding to the full length human HDAC1, 2, 3 and 11 were cloned into pBlueBac4.5 vector (Invitrogen). The constructs were used to generate recombinant baculoviruses using the Bac-N-Blue™ DNA according to the manufacturer's instructions (Invitrogen). The recombinant HDAC1, 2, 3, 11 proteins produced harbor a FLAG tag at their C-termini. cDNAs encoding truncated versions of HDAC4, 5 and 7 encompassing their deacetylase domains were cloned into pDEST10 as an N-terminal hexahistidine fusion protein and recombinant baculoviruses were generated using the Bac-to-Bac™ Baculovirus expression system (Invitrogen). HDAC6 and 8 were cloned as full length N-terminally His-tagged protein. All HDAC proteins were expressed in insect Sf-9 cells (Spodoptera frugiperdai) upon infection with recombinant baculovirus. HDAC1 enzyme was purified from the Q-sepharose FF column (Amersham Pharmacia Biotech, Baie d'Urfe QC, Canada) followed by an anti-FLAG immunoaffinity column (Sigma). HDAC2, 3 and 11 were purified using Flag-antibody immunoaffinity purification. HDAC4, 5, 6, 7 and 8 were purified using either Ni-NTA resin (QIAGEN Mississauga ON, Canada) or His-Select resin (Sigma) with step washes and elution with different concentrations of imidazole in Buffer containing 25 mM Tris (or NaPO4) pH 8.0, 10% glycerol and 150 mM or 500 mM NaCl.
(§2) Recombinant HDAC enzymes were incubated with diluted compounds in assay buffer (25 mM Hepes, pH 8.0, 137 mM NaCl, 1 mM MgCl2 and 2.7 mM KCl) for 10 minutes at ambient temperatures in black 96-well plate. Boc-Lys(Ac)-AMC (for HDAC1, 2, 3, 6, and 8 enzymes), which was purchased from Bachem Biosciences Inc., (King of Prussia, Philadelphia) were added into enzyme-compound mixture and incubated at 37° C. For HDAC4, 5, 7 assays, Boc-Lys(TFA)-AMC, which was synthesized in house, was used as substrate and 0.1% BSA was added to the buffer. […] Reaction time was predetermined to ensure that reaction was linear for the incubation time. Reaction was stopped by adding a freshly prepared trypsin (1 mg/ml final concentration) with 1 μM TSA (Biomol) in assay buffer. After 30 minutes, fluorescence was measured using a fluorometer (SPECTRAMAX GeminiXS, Molecular Devices, Sunnylvale, Calif.). The 50% inhibitory concentrations (IC50) for inhibitors were determined by analyzing dose-response inhibition curves.

HDAC7 = molecular target: T2, HDAC7 (Homo sapiens, UniProt Q8WUI4); test: Fluorescence-based HDAC enzyme assay, recombinant HDAC7; assay type: biochemical; settings: recombinant human HDAC enzyme in vitro; read-out: IC50 (μM) HD7
T2 construct: cDNAs encoding truncated versions of HDAC4, 5 and 7 encompassing their deacetylase domains; hexahistidine (N); made in house; host or cells: Sf-9 insect cells (baculovirus)
T2 sequence (Q8WUI4 512-865 limits assumed): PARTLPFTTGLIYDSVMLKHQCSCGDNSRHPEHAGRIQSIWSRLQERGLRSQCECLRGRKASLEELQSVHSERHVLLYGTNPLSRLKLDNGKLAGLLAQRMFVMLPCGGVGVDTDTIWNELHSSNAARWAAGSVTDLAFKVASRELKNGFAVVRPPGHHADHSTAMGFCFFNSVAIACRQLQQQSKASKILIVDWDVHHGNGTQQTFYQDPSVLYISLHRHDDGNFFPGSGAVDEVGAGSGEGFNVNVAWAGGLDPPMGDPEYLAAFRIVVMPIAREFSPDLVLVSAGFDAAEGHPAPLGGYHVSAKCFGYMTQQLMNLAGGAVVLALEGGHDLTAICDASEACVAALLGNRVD
Text: as §1, §2

[1] = tested on: human H460 non-small cell lung tumor, Du145 prostate tumor, TSU-Pr1 prostate tumor, and AZ521 gastric tumor xenograft; test: Xenograft combination studies with taxol (Example 15); assay type: in vivo, mouse; settings: oral administration, nude mice with human lung, prostate and gastric tumors
Method: Antitumor studies were done using human H460 non-small cell lung tumor, Du145 prostate tumor, TSU-Pr1 prostate tumor, and AZ521 gastric tumor xenograft model in male BALBc/A nude mice (from Japan Crea Inc., Japan). Male nude mice were used at age 8-10 weeks. Human carcinoma cells were injected subcutaneously in the animal flank and allowed to form solid tumors. Tumor fragments (about 2 mm^3 fragments) were then removed and implanted subcutaneously through a small surgical incision to the right flank of other animals. […] Tumor volumes and gross body weight of animals were monitored twice weekly for up to 2 weeks for AZ-521 and TSU-Pr1, or 4 weeks for H460 and Du145 xenografts. Each experimental group contained 6 animals.

HDAC3 = molecular target: T3, HDAC3 (Homo sapiens, UniProt O15379); test: Fluorescence-based HDAC enzyme assay, recombinant HDAC3; assay type: biochemical; settings: recombinant human HDAC enzyme in vitro; read-out: IC50 (μM) HD3
T3 construct: cDNAs corresponding to the full length human HDAC1, 2, 3 and 11 were cloned into pBlueBac4.5 vector; FLAG (C); made in house; host or cells: Sf-9 insect cells (baculovirus)
T3 sequence (O15379 whole entry): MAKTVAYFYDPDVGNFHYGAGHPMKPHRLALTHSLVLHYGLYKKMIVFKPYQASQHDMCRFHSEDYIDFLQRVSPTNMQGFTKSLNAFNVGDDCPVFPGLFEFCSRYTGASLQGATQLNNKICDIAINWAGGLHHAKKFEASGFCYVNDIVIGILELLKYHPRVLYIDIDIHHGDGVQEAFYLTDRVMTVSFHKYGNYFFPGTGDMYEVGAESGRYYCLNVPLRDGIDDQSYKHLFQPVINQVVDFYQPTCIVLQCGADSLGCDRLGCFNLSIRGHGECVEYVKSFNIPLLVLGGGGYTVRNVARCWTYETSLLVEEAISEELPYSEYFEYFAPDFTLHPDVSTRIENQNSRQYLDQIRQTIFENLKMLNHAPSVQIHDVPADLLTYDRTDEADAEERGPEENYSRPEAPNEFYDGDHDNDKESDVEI
Text: as §1
Recombinant HDAC enzymes were incubated with diluted compounds in assay buffer (25 mM Hepes, pH 8.0, 137 mM NaCl, 1 mM MgCl2 and 2.7 mM KCl) for 10 minutes at ambient temperatures in black 96-well plate. Boc-Lys(Ac)-AMC (for HDAC1, 2, 3, 6, and 8 enzymes), which was purchased from Bachem Biosciences Inc., (King of Prussia, Philadelphia) were added into enzyme-compound mixture and incubated at 37° C. […] After 30 minutes, fluorescence was measured using a fluorometer (SPECTRAMAX GeminiXS, Molecular Devices, Sunnylvale, Calif.). […]

HDAC4 = molecular target: T4, HDAC4 (Homo sapiens, UniProt P56524); test: Fluorescence-based HDAC enzyme assay, recombinant HDAC4; assay type: biochemical; settings: recombinant human HDAC enzyme in vitro; read-out: IC50 (μM) HD4
T4 construct: cDNAs encoding truncated versions of HDAC4, 5 and 7 encompassing their deacetylase domains; hexahistidine (N); made in house; host or cells: Sf-9 insect cells (baculovirus)
T4 sequence (P56524 655-1084 limits assumed): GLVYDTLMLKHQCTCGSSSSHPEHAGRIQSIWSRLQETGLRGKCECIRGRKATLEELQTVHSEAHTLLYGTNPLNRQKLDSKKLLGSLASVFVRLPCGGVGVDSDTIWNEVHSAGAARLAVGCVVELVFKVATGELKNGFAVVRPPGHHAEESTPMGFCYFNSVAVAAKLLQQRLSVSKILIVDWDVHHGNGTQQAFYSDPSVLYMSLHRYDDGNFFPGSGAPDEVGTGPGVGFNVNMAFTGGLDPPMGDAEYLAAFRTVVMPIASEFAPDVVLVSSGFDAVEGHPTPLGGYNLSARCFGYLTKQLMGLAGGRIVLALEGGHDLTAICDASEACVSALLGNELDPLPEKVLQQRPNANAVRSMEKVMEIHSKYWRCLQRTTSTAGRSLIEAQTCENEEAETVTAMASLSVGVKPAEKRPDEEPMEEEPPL
Text: as §1, §2

[2] = tested on: human Du145 prostate tumor xenograft; test: Du145 prostate tumor xenograft, combination with taxol; assay type: in vivo, mouse; settings: Du145, oral once daily 14 days with taxol 60 mg/kg i.v.
Method: Antitumor studies were done using human Du145 prostate tumor xenograft model in male BALBc/A nude mice (from Japan Crea Inc., Japan). Male nude mice were used at age 8-10 weeks. Human carcinoma cells were injected subcutaneously in the animal flank and allowed to form solid tumors. Tumor fragments (about 2 mm^2 fragments) were then removed and implanted subcutaneously to the right flank of other animals. When the tumor sizes reached about 100 to 200 mm^3, recipient animals were treated with Compound D, Compound E, Compound F, Compound G or Compound H (suspended with 0.5% HPMC) by oral administration alone, or taxol by i.v. injection (60 mg/kg), or combination of taxol with oral administration of Compound D, Compound E, Compound F, Compound G, Compound H. Typically, taxol was administered once per week by iv injection on the first day as a single administration, while Compound D, Compound E, Compound F, Compound G, or Compound H were administered once daily for 14 days. Tumor volumes and gross body weight of animals were monitored twice weekly for up to 2 weeks. Each experimental group contained at least 6 animals.

Row | Structure (SMILES) | IC50 (HDAC5) | IC50 (HDAC7) | IC50 (HDAC3) | IC50 (HDAC4) | antitumor activity of taxol [1] | antitumor activity of taxol [2]
1 | Nc1ccccc1NC(=O)c1ccc(CNc2nccc(-c3cccnc3)n2)cc1 [Compound A] | > 10 µM | > 10 µM |  |  | Potentiation | 
2 | Nc1ccccc1NC(=O)c1ccc(N2CC[C@H](Nc3cccnc3)C2)cc1 [Compound B] | > 10 µM | > 10 µM | 0.3 µM | > 10 µM | Potentiation | 
3 | Nc1ccc(-c2ccccc2)cc1NC(=O)c1ccc(N2CCC(N)CC2)cc1 [Compound E] | > 10 µM | > 10 µM |  | > 10 µM |  | Potentiation
4 | CN1CCN(c2ccc(C(=O)Nc3cc(-c4ccncc4)ccc3N)cc2)CC1 [Compound G] | > 10 µM | > 10 µM |  | > 10 µM |  | Potentiation

Further lines, with some results ahead:

Row | IC50 (HDAC5) | IC50 (HDAC7) | IC50 (HDAC3) | IC50 (HDAC4) | Structure (SMILES) | antitumor activity of taxol [1] | antitumor activity of taxol [2]
5 | > 10 µM | > 10 µM | 9 µM | > 10 µM | Nc1ccc(-c2ccccc2)cc1NC(=O)c1ccc(N2CC[C@H](N)C2)cc1 [Compound D] |  | Potentiation
6 | > 10 µM | > 10 µM |  | > 10 µM | CN1CCN(c2ccc(C(=O)Nc3cc(-c4ccccn4)ccc3N)cc2)CC1 [Compound F] |  | Potentiation
7 | > 10 µM | > 10 µM |  | > 10 µM | CC(C)N1CCN(c2ccc(C(=O)Nc3cc(-c4ccncc4)ccc3N)cc2)CC1 [Compound H] |  | Potentiation
